Measured values reported in publication PMC11898488, “A2A Adenosine Receptor Antagonists and Their Efficacy in Rat Models of Parkinson’s Disease” (Cells, 2025).
Entries after “also recorded” stand apart in the source; their conditions may differ.

Columns and labels:
human A2AAR [1] = biological target: T1, human A2AAR (Homo sapiens, UniProt P29274); assay: Radioligand binding, displacement of [3H]NECA at human A2AAR in CHO cells; details: for Selectivity A1/A2A / Selectivity A3/A2A: ratio of Ki values at human ARs; for Ki: [3H]-NECA displacement, human A2AAR in CHO cells, geometric mean with 95% confidence limits, read-out: Ki A2A
T1 construct: expressed in transfected cells; host or cells: CHO cells, crude membrane fractions
Protocol: The radioligand binding experiments were carried out exactly as described previously. For A1AR binding, 1 nM [^3H]CCPA was used as a radioligand, whereas 30 and 10 nM [^3H]NECA were used for A2A and A3 ARs, respectively. Nonspecific binding was determined in the presence of 1 mM theophylline (A1AR) or […] R-PIA (A2A and A3 ARs). Ki values were calculated from competition curves by nonlinear curve fitting with the program SCTFIT [31].
CHO cells stably transfected with human ARs were grown adherently and maintained in Dulbecco’s Modified Eagles Medium with nutrient mixture F12 (DMEM/F12) without nucleosides, containing 10% fetal calf serum, penicillin (100 U/mL), streptomycin (100 μg/mL), L-glutamine (2 mM), and Geneticin (G-418, 0.2 mg/mL) at 37 °C in 5% CO2/95% air, as described earlier. For radioligand binding studies and measurement of adenylyl cyclase activity, crude membrane fractions were prepared from fresh or frozen cells with two different protocols described earlier. The determination of adenylyl cyclase activity followed the procedure described earlier. IC50 values for the inhibition of adenylyl cyclase stimulated (in the case of A2BAR) with 5 μM NECA were calculated with the Hill equation and converted to Ki values with the Cheng and Prusoff equation [32].
[^3H]CCPA (2-chloro-N^6-cyclopentylAdo) and [^3H]NECA (5′-N-ethylcarboxamidoAdo) were used as specific radioligands at A1ARand A2A / A3 ARs, respectively. Furthermore, the ability of the same compounds to inhibit NECA-stimulated adenylyl cyclase activity was evaluated at the A2BAR subtype. The results of the binding studies (A1, A2A, and A3 ARs) and functional data (A2BAR) are reported in Table 1 as Ki or IC50 values in nM, together with the data on the reference compounds 1–3.

human A2AAR [2] = biological target: T1, human A2AAR; assay: GloSensor cAMP assay in CHO cells expressing human A2AAR; assay type: cell-based; details: for cAMP production when tested alone (agonist behavior): A2AAR transfected CHO cells, compound alone, in comparison with NECA; for IC50: CHO cells expressing hA2AARs, GloSensor cAMP assay, mean ± standard error, read-out: IC50, inhibition of NECA-induced cAMP production
Protocol: The performed GloSensorÏ cAMP assay is a non-radioactive method that offers a simple and powerful approach to monitor G-protein coupled receptor (GPCR) activity through change in the intracellular cAMP concentration.
Cell culture: CHO cells stably expressing human A2AAR were grown adherently and maintained in Dulbecco’s modified Eagle’s medium with nutrient mixture F12 (DMEM/F12 with phenol red), supplemented with 10% fetal bovine serum (FBS), 100 U mL^−1 penicillin, 100 µg mL^−1 streptomycin, 2.5 µg mL^−1 amphotericin, 1 mM sodium pyruvate and 0.1 mg mL^−1 geneticin (G418), at 37 °C and aerated with 5% CO2:95% […]. Cells were grown to approximately 70–80% confluence, and transient transfection with a plasmid encoding the biosensor was performed.
GloSensorÏ cAMP assay: Cells were harvested in CO2-independent medium and were counted in a Neubauer chamber. The desired number of cells was incubated in equilibration medium containing a 3% v/v GloSensor^TM cAMP reagent stock solution, 10% FBS, and 87% CO2 independent medium. After 2 h of incubation, the cells were dispensed in the wells of a 384-well plate and, when a steady-state basal signal was obtained, the NECA referent agonist or the understudy compounds, at different concentrations, were added. […] The antagonist profile was evaluated by assessing their ability to counteract an agonist-induced increase in cAMP accumulation. The cells were incubated in the reaction medium (10 min at room temperature) with different understudy molecule concentrations and then treated with NECA. After 10 min, various luminescence reads were performed at different incubation times.
Statistical analysis: Responses were expressed as a percentage of the maximal relative luminescence units (RLU). Concentration–response curves were fitted by a nonlinear regression with the Prism 4.0 program (GraphPAD Software, San Diego, CA, USA). To quantify the NECA agonist potency, the EC50 value was calculated. The EC50 value is the concentration of agonists required to produce 50% of the maximum effect. To evaluate the antagonist profile, the IC50 values were determined. The IC50 value is the concentration of antagonists that produces a 50% inhibition of the agonist effect. Each concentration was tested three times in triplicate, and the values are given as the mean ± standard error.

[3] = system: catalepsy induced by haloperidol; assay: Haloperidol-induced catalepsy, vertical grid test; assay type: in vivo, rat; details: rats; for Effect on catalepsy induced by haloperidol: 5 mg/kg i.p. given 90 min after haloperidol 0.2 mg/kg s.c., 90 min testing period; for Duration of anticataleptic effect: 5 mg/kg i.p., haloperidol 0.2 mg/kg s.c., time after drug administration
Protocol: Male Sprague Dawley rats (200–300 g, Charles River, Calco, Italy) were housed in groups of 4–6 in standard polycarbonate cages with sawdust bedding and maintained on a 12 h light/dark cycle (lights on at 8:00 am). Food and water were freely available. All experiments were conducted in accordance with the guidelines for animal experimentation of the EU directives (2010/63/EU; L.276; 22 September 2010) and approved by the Committee on Animal Experimentation (CESA; protocol code 29456, 21 March 2012) of the University of Cagliari. Experiments were designed to minimize animal discomfort and to reduce the number of animals used.
Catalepsy was estimated using the vertical grid test. The test was carried out by placing a rat with the four paws on a wire grid (43–25 cm) at an angle of about 70° in respect to the bench surface. Catalepsy was determined by measuring the time in which the rat maintained a given position. The test was terminated when the rat moved one paw or when 90 s had elapsed from the placement of the rat on the grid. Catalepsy assessments were repeated every 10–15 min intervals. […] A2AAR antagonists were injected 90 min after haloperidol administration to evaluate their effects on deeply cataleptic rats. […]
For catalepsy evaluation, the mean and S.E.M. of the seconds of immobility during each test section were calculated. Significant differences between groups were evaluated by one-way analysis of variance (ANOVA) followed by a Newman–Keuls post hoc test.
After 40 min of haloperidol administration (0.2 mg/kg s.c.), a significant catalepsy was induced in rats, which reached its maximum at 60–70 min [18, 24]. Therefore, the administration of the A2AAR antagonists was made 90 min after haloperidol to evaluate their effects on deeply cataleptic rats.

T1 sequence (P29274 whole entry): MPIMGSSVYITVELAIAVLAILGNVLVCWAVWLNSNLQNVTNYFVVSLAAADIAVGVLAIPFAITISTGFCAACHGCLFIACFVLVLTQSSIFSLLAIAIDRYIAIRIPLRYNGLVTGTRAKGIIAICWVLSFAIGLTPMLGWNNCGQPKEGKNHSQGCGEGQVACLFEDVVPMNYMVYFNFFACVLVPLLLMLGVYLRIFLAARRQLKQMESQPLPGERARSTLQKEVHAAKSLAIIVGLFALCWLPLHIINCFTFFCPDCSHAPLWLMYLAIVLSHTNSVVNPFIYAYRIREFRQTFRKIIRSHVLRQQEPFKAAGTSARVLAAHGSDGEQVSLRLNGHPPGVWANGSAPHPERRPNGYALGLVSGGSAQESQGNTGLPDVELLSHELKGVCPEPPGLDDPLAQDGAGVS

| Selectivity A1/A2A (human A2AAR [1]) | Selectivity A3/A2A (human A2AAR [1]) | IC50 (human A2AAR [2]) [nM] | Ki (human A2AAR [1]) [nM] | Structure (SMILES) | cAMP production when tested alone (agonist behavior) (human A2AAR [2]) | Efficacy on catalepsy, preliminary studies ([3]; 5 mg/kg) | Effect on catalepsy induced by haloperidol [3] | Duration of anticataleptic effect [3] [min] | Efficacy on catalepsy, preliminary studies ([3]; 1 and 3 mg/kg) |
| --- | --- | --- | --- | --- | --- | --- | --- | --- | --- |
| 23 | 97 | 278 ± 49 | 3.7 | CCOc1nc2c(N)nc(OCCc3ccccc3)nc2n1CC [Compound 4, 8-ethoxy-9-ethyl-2-phenethoxyadenine] | not able to stimulate cAMP production; also recorded: no increase in cAMP production was detected | fully effective | significantly antagonized catalepsy; also recorded: longer duration and a strong intensity | 10 to 90 | low efficacy on catalepsy |
| 21 | 408 | 114 ± 25 | 1.2 | CCn1c(I)nc2c(N)nc(OCCc3ccccc3)nc21 [Compound 5, 9-ethyl-8-iodo-2-phenethoxy-9H-purin-6-amine] | not able to stimulate cAMP production; also recorded: no increase in cAMP production was detected | fully effective | significantly antagonized catalepsy | ≤ 60 | low efficacy on catalepsy |

| Structure (SMILES) | Selectivity A1/A2A (human A2AAR [1]) | Selectivity A3/A2A (human A2AAR [1]) | IC50 (human A2AAR [2]) [nM] | Ki (human A2AAR [1]) [nM] | cAMP production when tested alone (agonist behavior) (human A2AAR [2]) | Efficacy on catalepsy, preliminary studies ([3]; 5 mg/kg) | Effect on catalepsy induced by haloperidol [3] | Duration of anticataleptic effect [3] [min] | Efficacy on catalepsy, preliminary studies ([3]; 1 and 3 mg/kg) |
| --- | --- | --- | --- | --- | --- | --- | --- | --- | --- |
| CCn1c(Br)nc2c(N)nc(OCCc3ccccc3)nc21 [Compound 1, 8-bromo-9-ethyl-2-phenetoxyadenine] | 14 | 641 | 108 ± 23 |  | not able to stimulate cAMP production; also recorded: no increase in cAMP production was detected | fully effective | significantly antagonized catalepsy | 10 to 90 | low efficacy on catalepsy |
